Patent publication US20050256161A1, “Melanin concentrating hormone receptor antagonists” (priority 2003, published 2005)
pIC50, pKi: −log10 of the molar value.

How the values were obtained:
[1] = target: T1, rat MCH1 receptor (Rattus norvegicus, UniProt P97639); assay: rMCH FLIPR calcium mobilization functional assay; type: cell-based; conditions: CHOK1-Gqi cells
T1 construct: expressed in transfected cells
Protocol: Pharmacological analyses were conducted using either a HT-PS100 device (Axiom Biotechnologies, San Diego, Calif.), which provides high-resolution dose-response fluorometric measurements of [Ca^++]i mobilization, or using a FLIPR® device (Molecular Devices, Sunnyvale, Calif.).
Materials: Pharmacological analysis was conducted using a FLIPR® device (Molecular Devices, Sunnyvale, Calif.). CHOK1-Gqi cells were stably transfected with the rat MCH1 receptor and maintained under G418 antibiotic pressure. FLIPR® assay buffer consisted of phenol red-free DMEM+2.5 mM probenecid. MCH peptide (Amgen, Inc.) was reconstituted in assay buffer and served as the positive agonist control for all experiments. Test compounds were prepared as 10 mM stocks in 100% DMSO and diluted to a top end working concentration of 10 μM in 96 well black, flat bottom, collagen-I coated plates (Becton Dickinson, Bedford, Mass.).
Methods: CHOK1-Gqi cells stably expressing MCH1R were maintained in Dulbeco's modified Eagle's medium (GIBCO/Life Technologies, Rockville, Md.) supplemented with 2 mM glutamine and 10% dialyzed fetal bovine serum (HyClone, Logan, Utah) at 37° C., 5% CO2. Cells were harvested by 10′ treatment with Versene (GIBCO/Life Technologies) followed by trituration, washing twice with cold (4° C.) hybridoma medium (Serum/Protein free, with L-glutamine, sodium bicarbonate, MOPS buffer) (Sigma-Aldrich Corp, St. Louis, Mo.) and replated onto 96 well black, flat bottom, collagen-I coated plates to a density of 10,000 cells/well. The cells were then loaded with the fluorescent calcium indicator Fura-2 (Molecular Probes, Eugene, Oreg.) at 1.6 μM for 60′ at room temperature. The loaded cells were then washed twice with 90 μl/well of wash buffer (1×HBSS, 20 mM HEPES, 2.5 mM probenecid).
Receptor-stimulated intracellular calcium responses were detected using FLIPR® by monitoring increases in the Fura-2 fluorescence response.
Test compounds were screened for MCH1R activity in the FLIPR® for both agonist and antagonist action. Agonist mode challenges were conducted at a maximum gradient concentration of 1 μM. Antagonist activity was tested by 10 min pre-incubation of cells at a compound concentration of defined to be 300× the EC50 of MCH (typically 1 μM), with subsequent introduction of MCH at a concentration 5-fold of EC50 as determined in preliminary experiments.
Schild experiments were conducted on the FLIPR® for selected compounds by co-administering antagonist compounds together with MCH peptide. Several fixed concentrations of antagonist compounds were prepared in 10-fold increments, and presented to the cells in a gradient of increasing MCH concentration. Values for compound pA2 were calculated by linear regression of MCH EC50s as a function of antagonist concentration.

[2] = target: T2, human MCH receptor (Homo sapiens, UniProt Q99705); assay: hMCH FLIPR calcium mobilization functional assay; type: cell-based
T2 construct: expressed in transfected cells
T2 sequence (Q99705 whole entry): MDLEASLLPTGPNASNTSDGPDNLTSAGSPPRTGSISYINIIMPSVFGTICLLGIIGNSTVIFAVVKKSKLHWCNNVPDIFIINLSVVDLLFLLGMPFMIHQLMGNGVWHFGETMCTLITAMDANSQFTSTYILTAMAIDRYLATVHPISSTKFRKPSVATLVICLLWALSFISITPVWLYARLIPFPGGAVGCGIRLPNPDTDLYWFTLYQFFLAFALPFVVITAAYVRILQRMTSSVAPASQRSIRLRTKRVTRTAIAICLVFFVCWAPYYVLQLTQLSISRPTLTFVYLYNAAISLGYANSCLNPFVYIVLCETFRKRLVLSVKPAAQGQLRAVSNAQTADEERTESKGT

[3] = target: T3, rat MCH 1 receptor (rMCH1R) (Rattus norvegicus, UniProt P97639); assay: Ligand binding assay (125I native-MCH), rMCH; conditions: rMCH1R expressed in HEK 293, membranes, 0.2 nM 125I native-MCH
T3 construct: expressed in transfected cells; host or cells: HEK 293 (membrane preparation)
T3 sequence (P97639 whole entry): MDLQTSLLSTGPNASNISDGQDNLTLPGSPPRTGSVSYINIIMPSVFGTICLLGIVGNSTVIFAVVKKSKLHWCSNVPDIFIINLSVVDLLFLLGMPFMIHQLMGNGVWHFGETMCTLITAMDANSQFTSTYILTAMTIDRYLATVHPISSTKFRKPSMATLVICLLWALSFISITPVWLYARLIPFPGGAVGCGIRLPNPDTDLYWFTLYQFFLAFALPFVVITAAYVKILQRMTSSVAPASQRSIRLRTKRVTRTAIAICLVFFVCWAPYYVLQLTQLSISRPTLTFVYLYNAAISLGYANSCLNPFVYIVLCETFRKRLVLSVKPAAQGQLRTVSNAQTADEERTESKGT
Protocol: (§1) Human embryonic kidney cells (293 total) expressing either human, rat, or mouse MCH receptor were harvested from 150 mm culture dishes using PBS. Spinning at 1500 rpm for 2 minutes initially pelleted cells. The resulting pellet was then homogenized in 15 mL ice cold sucrose buffer (25 mM HEPES, 0.3 M sucrose, pH 7.4) with a motorized, glass fitted, Teflon® homogenizer. The homogenate was centrifuged at 48,000×g at 4° C. for 10 minutes, resuspended in 15 mL assay buffer (25 mM HEPES, 10 mM MgCl2, 0.2% BSA, 0.1 mg/mL STI, 0.1 mg/mL Pefabloc®, 1 μM Phosphoramidon, pH 7.4) with a Tissue-Tearor® (Biospec Products) and centrifuged again at 48,000×g for 10 minutes. The pellet was homogenized for a third time in 15 mL assay buffer using the Tissue-Tearor® and again centrifuged at 48,000×g for 10 minutes. The resulting pellet was resuspended in assay buffer at a wet weight concentration of 10-20 mg/mL.
(§2) Binding assays were determined as described below using mouse, rat or human MCH 1 receptors (mMCH1R, rMCH1R, and hMCH1R, respectively) expressed in HEK 293; IC50 values were calculated.
(§3) Binding assays were performed in 96-well U-bottom plates. Membranes (100 μg tissue) were incubated at 30° C. for 90 minutes in assay buffer with various peptides in the presence of 0.2 nM 125I native-MCH (Perkin-Elmer Life Sciences, Boston, Mass.) in 100 μL total volume. Non-specific binding was assessed in the presence of 1 μM cold native-MCH. The reaction was terminated by rapid filtration through Unfilter-96 GF/C glass fiber filter plates (FilterMate® 196 Harvester, Packard Instrument Co., Meriden, Conn.) pre-soaked in PBS/0.5% BSA, followed by three washes with 300 μL ice-cold water. Bound radioactivity was determined using a TopCount® microplate scintillation and luminescence counter (Packard Instrument Co., Meriden, Conn.). Nonlinear regression analyses of drug concentration curves were performed using GraphPad Prism® (GraphPad Software, Inc., San Diego, Calif.).

[4] = target: T4, human MCH 1 receptor (hMCH1R) (Homo sapiens, UniProt Q99705); assay: Ligand binding assay (125I native-MCH), hMCH; conditions: hMCH1R expressed in HEK 293, membranes, 0.2 nM 125I native-MCH
T4 construct: expressed in transfected cells; host or cells: HEK 293 (membrane preparation)
T4 sequence (Q99705 whole entry): as the sequence (Q99705 whole entry) above
Protocol: as §1, §2, §3

T1 sequence (P97639 whole entry): as the sequence (P97639 whole entry) above

Structure (SMILES)	pKi ([1]; threshold 100 μM or less)	pKi ([2]; threshold 100 μM or less)	pIC50 ([3]; threshold 100 μM or less)	pIC50 ([4]; threshold 100 μM or less)	pKi ([1]; threshold 100 nM or less)	pKi ([2]; threshold 100 nM or less)	pIC50 ([3]; threshold 100 nM or less)	pIC50 ([4]; threshold 100 nM or less)
Cc1ccc(Oc2ccc(CNCCN3CCCC3)cc2NC(=O)Nc2cccc(F)c2)cc1C [Compound 64, 1-{2-(3,4-dimethylphenoxy)-5-[(2-pyrrolidin-1-yl-ethylamino)-methyl]phenyl}-3-(3-fluorophenyl)urea]	≥ 4.00	≥ 4.00	≥ 4.00	≥ 4.00				
Cc1ccc(Oc2ccc(C(=O)NCCN3CCCC3)cc2NC(=O)Nc2cc(Cl)cc(Cl)c2)cc1C [Compound 59, 3-[3-(3,5-dichlorophenyl)ureido]-4-(3,4-dimethylphenoxy)-N-(2-pyrrolidin-1-yl-ethyl)benzamide]	≥ 4.00	≥ 4.00	≥ 4.00	≥ 4.00			≥ 7.00	≥ 7.00
Cc1ccc(Oc2ccc(C(=O)NCCN3CCCC3)cc2NC(=O)Nc2cc(F)cc(F)c2)cc1C [Compound 58, 3-[3-(3,5-difluorophenyl)ureido]-4-(3,4-dimethylphenoxy)-N-(2-pyrrolidin-1-yl-ethyl)benzamide]	≥ 4.00	≥ 4.00	≥ 4.00	≥ 4.00			≥ 7.00	≥ 7.00
Cc1cccc(Oc2ccc(C(=O)NCCN3CCCC3)cc2NC(=O)Nc2cccc(F)c2)c1 [Compound 57]	≥ 4.00	≥ 4.00	≥ 4.00			≥ 7.00	≥ 7.00	
Cc1ccc(Oc2ccc(C(=O)NCCN3CCCC3)cc2NC(=O)Nc2cccc(F)c2)cc1 [Compound 56, 3-[3-(3-fluorophenyl)ureido]-N-(2-pyrrolidin-1-yl-ethyl)-4-p-tolyloxybenzamide]	≥ 4.00	≥ 4.00	≥ 4.00			≥ 7.00	≥ 7.00	
O=C(Nc1cccc(F)c1)Nc1cc(C(=O)NCCN2CCCC2)ccc1Oc1ccc(F)cc1 [Compound 54, 4-(4-fluorophenoxy)-3-[3-(3-fluorophenyl)ureido]-N-(2-pyrrolidin-1-yl-ethyl)benzamide]	≥ 4.00	≥ 4.00	≥ 4.00				≥ 7.00	
Cc1ccc(Oc2ccc(C(=O)NCCN3CCCC3)cc2NC(=O)CCc2ccccc2)cc1C [Compound 5, 4-[(3,4-dimethylphenyl)oxy]-3-[(3-phenylpropanoyl)amino]-N-(2-(1-pyrrolidinyl)ethyl)benzamide]	≥ 4.00	≥ 4.00		≥ 4.00				
Cc1ccc(Oc2ccc(C(=O)NCCN3CCCC3)cc2NC(=O)NCc2ccccc2)cc1C [Compound 6, 4-[(3,4-dimethylphenyl)oxy]-3-({[(phenylmethyl)amino]carbonyl}amino)-N-(2-(1-pyrrolidinyl)ethyl)benzamide]	≥ 4.00	≥ 4.00		≥ 4.00	≥ 7.00	≥ 7.00		≥ 7.00
O=C(Nc1cccc(F)c1)Nc1cc(C(=O)NCCN2CCCC2)ccc1Oc1cccc(F)c1 [Compound 55, 4-(3-fluorophenoxy)-3-[3-(3-fluorophenyl)ureido]-N-(2-pyrrolidin-1-yl-ethyl)benzamide]	≥ 4.00	≥ 4.00	≥ 4.00				≥ 7.00	
Cc1cc(Oc2ccc(C(=O)NCCN3CCCC3)cc2NC(=O)Nc2cccc(F)c2)ccc1F [Compound 51, 4-(4-fluoro-3-methylphenoxy)-3-[3-(3-fluorophenyl)ureido]-N-(2-pyrrolidin-1-yl-ethyl)benzamide]	≥ 4.00	≥ 4.00	≥ 4.00			≥ 7.00	≥ 7.00	

The next lines start with the values.

pKi ([1]; threshold 100 μM or less)	pKi ([2]; threshold 100 μM or less)	pIC50 ([3]; threshold 100 μM or less)	pIC50 ([4]; threshold 100 μM or less)	pKi ([1]; threshold 100 nM or less)	pKi ([2]; threshold 100 nM or less)	pIC50 ([3]; threshold 100 nM or less)	pIC50 ([4]; threshold 100 nM or less)	Structure (SMILES)
≥ 4.00	≥ 4.00	≥ 4.00	≥ 4.00	≥ 7.00	≥ 7.00	≥ 7.00	≥ 7.00	Cc1ccc(Oc2ccc(C(=O)NCCN3CCCC3)cc2NC(=O)Nc2ccc(Br)cc2)cc1C [Compound 38, 3-[3-(4-bromophenyl)ureido]-4-(3,4-dimethylpherioxy)-N-(2-pyrrolidin-1-yl-ethyl)benzamide]
≥ 4.00	≥ 4.00	≥ 4.00	≥ 4.00				≥ 7.00	Cc1ccc(Oc2ccc(C(=O)NCCN3CCCC3)cc2NC(=O)Nc2cccc3ccccc23)cc1C [Compound 36, 4-(3,4-dimethylphenoxy)-3-(3-naphthalen-1-yl-ureido)-N-(2-pyrrolidin-1-yl-ethyl)benzamide]
≥ 4.00	≥ 4.00	≥ 4.00	≥ 4.00	≥ 7.00	≥ 7.00	≥ 7.00	≥ 7.00	Cc1ccc(Oc2ccc(C(=O)NCCN3CCCC3)cc2NC(=O)Nc2ccccc2)cc1C [Compound 1, 4-[(3,4-dimethylphenyl)oxy]-3-{[(phenylamino)carbonyl]amino}-N-(2-(1-pyrrolidinyl)ethyl)benzamide]
≥ 4.00	≥ 4.00	≥ 4.00	≥ 4.00				≥ 7.00	Cc1ccc(Oc2ccc(C(=O)NCCN3CCCC3)cc2NC(=O)Nc2c(C(C)C)cccc2C(C)C)cc1C [Compound 37, 3-[3-(2,6-diisopropylphenyl)ureido]-4-(3,4-dimethylphenoxy)-N-(2-pyrrolidin-1-yl-ethyl)benzamide]
≥ 4.00	≥ 4.00	≥ 4.00	≥ 4.00		≥ 7.00		≥ 7.00	Cc1ccc(Oc2ccc(C(=O)NCCN3CCCC3)cc2NC(=O)Nc2ccc(C(C)C)cc2)cc1C [Compound 34, 4-(3,4-dimethylphenoxy)-3-[3-(4-isopropylphenyl)ureido]-N-(2-pyrrolidin-1-yl-ethyl)benzamide]
≥ 4.00	≥ 4.00	≥ 4.00	≥ 4.00	≥ 7.00	≥ 7.00	≥ 7.00	≥ 7.00	COc1cccc(NC(=O)Nc2cc(C(=O)NCCN3CCCC3)ccc2Oc2ccc(C)c(C)c2)c1 [Compound 40, 4-(3,4-dimethylphenoxy)-3-[3-(3-methoxyphenyl)ureido]-N-(2-pyrrolidin-1-yl-ethyl)benzamide]
